From patent EP4640206A1, “NISIN FOR INHIBITING BIOFILMS” (SkyLab AG, priority 2024, dated 2025)

Columns and labels:
[1] = system: Streptococcus mutans No. 22081; test: Effect of nisin concentrations on growth and biomass accumulation of S.mutans, serial two-fold dilutions micromethod, 16-hour follow-up (optical density A565 nm); type: cell-based
From the text: Example No. 1. Determination of the effect of different concentrations of nisin on growth and biomass accumulation of S.mutans No. 22081 in 16-hour follow-up.
Aqueous solution of nisin in different concentrations was used as the working solution.
To prepare the reaction mixture containing the tested component, a method of serial twofold dilutions in heart-brain broth (Series 201181, valid till 012025., CONDALAB, Spain), a micromethod (flat-bottom 96-well plate), for which serial dilutions of the investigated component were prepared in liquid nutrient medium. When setting the methods of serial dilutions, control of culture growth on medium without the active component was carried out, and the quality of medium and investigated preparations was controlled using reference strains of the species. The purity of the microorganism suspension used for inoculation was also controlled by sowing on non-selective media.
The results of the micromethod formulation to evaluate the effect of drugs on the growth and development of the culture of Streptococcus mutans No. 22081 were recorded spectrophotometrically in an automatic kinetic format (intermittent shaking, T-37°C, measurement of optical density A565 nm every hour in automatic mode).

S.mutans biofilms = test: Follow-up observation of pH of washes of a laboratory model of S. mutans biofilms in 10% sucrose; type: cell-based, Streptococcus mutans; conditions: 10% sucrose; for Value of pH decrease within 30 min. of measurement (%): compared to the initial value
Protocol: Example No. 2. Follow-up observation of pH of washes of a laboratory model of S. mutans biofilms.
Inoculum of S.mutans control strain was prepared from an ampoule. The ampoule with the dried strain was opened sterilely over a drier or a tray. The upper end of the ampoule was heated on a burner flame, and paraffin was removed; then a piece of sterile absorbent cotton moistened in sterile water was carefully touched to the pulled end of the ampoule so that a small crack appeared, and the same wet cotton was passed around the tip of the ampoule. After the crack had formed, the end of the ampoule was removed with a light blow of tweezers. After opening the ampoule, 0.3-0.5 ml of heart-brain broth was sterilely poured in. After dissolution of the dry contents, the ampoule was transferred with a Pasteur pipette into tubes with 2 ml of heart-brain broth and grown at 37°C for 2 hours in a thermostat in 5% CO2 medium. To restore full viability, 1-2 passages on nutrient media appropriate for the microbes of the species were required. 2 Petri dishes with agar containing 5% horse blood were seeded with 0.1 ml of a 2-hour culture on heart-brain broth of the strain. Petri dishes were incubated at 37°C for 18 hours in an incubator containing 5% CO2. Gram stained smears were prepared from the grown colonies to assess the tinctorial, phenotypic properties and homogeneity of bacteria. Species membership was confirmed using MALDI-TOF reference bases.
Aqueous solutions of nisin in concentrations of 0.004 and 0.008% were taken as the working solutions for testing. […] Distilled water was used as a negative control. […] Urea was chosen due to its ability to alkalinize the environment in bacterial biofilms (Jadon et al., 2018). During the assay, a 10% sucrose solution was used, which is known to be readily metabolized by cariogenic bacteria to acid, thus contributing to the overall acidification of the medium.
The contents of the wells were extracted using an aspirator. All 6 wells of the first row were filled with 1 ml of deionized water and left for 5 min. The water was extracted with an aspirator; 1 ml of the test solution was added into the wells; in 1 min the component was removed, the wells were glazed for 1 min with deionized water, then it was removed. 250 µl of 10% sucrose was added to the wells and biofilms were scraped off the well walls with a disposable plastic loop. The resulting suspension was transferred by pipette into three Eppendorf tubes: contents of wells 1 and 2 into Eppendorf tube No. 1, contents of wells 3 and 4 into Eppendorf tube No. 2, contents of wells 5 and 6 into Eppendorf tube No. 3; next, the measurement of pH started immediately. Time points of the measurement are: 0, 1, 2, 3, 4, 5, 6, 7, 8, 9, 10, 15, 20, 30 min. After the test was finished, the electrode was washed and the described procedure was repeated for the next solution under study.

[2] = heart-brain broth, 37°C, 16-hour follow-up

## Nisin
[1]; concentrations lower than 0.0039%
  effect on growth and biomass accumulation: no significant effect
[1]; [2]
  concentrations that significantly inhibited growth and biomass accumulation, but had no bactericidal effect: 0.0039-0.0078%
  final concentration with pronounced antibacterial effect: 0.0078-0.125%
  minimum-suppressive concentration: 0.0039%
[1]; nisin solution in concentration of 0.008% and below
  antibacterial and inhibitory activity against S.mutans: not able to have antibacterial and inhibitory activity
S.mutans biofilms; Nisin 0.004%, 0 min
  pH of mechanically disrupted S.mutans biofilms: 6.09±0.006
S.mutans biofilms; Nisin 0.004%, 1 min
  pH of mechanically disrupted S.mutans biofilms: 6.08±0.006
S.mutans biofilms; Nisin 0.004%, 1 min vs previous time point
  pH change (in brackets), S.mutans biofilms: -0.01
S.mutans biofilms; Nisin 0.004%, 2 min
  pH of mechanically disrupted S.mutans biofilms: 6.07±0.006
S.mutans biofilms; Nisin 0.004%, 2 min vs previous time point
  pH change (in brackets), S.mutans biofilms: -0.01
S.mutans biofilms; Nisin 0.004%, 3 min
  pH of mechanically disrupted S.mutans biofilms: 6.05±0.006
S.mutans biofilms; Nisin 0.004%, 3 min vs previous time point
  pH change (in brackets), S.mutans biofilms: -0.02
S.mutans biofilms; Nisin 0.004%, 4 min
  pH of mechanically disrupted S.mutans biofilms: 6.05±0
S.mutans biofilms; Nisin 0.004%, 4 min vs previous time point
  pH change (in brackets), S.mutans biofilms: 0
S.mutans biofilms; Nisin 0.004%, 5 min
  pH of mechanically disrupted S.mutans biofilms: 6.04±0.006
S.mutans biofilms; Nisin 0.004%, 5 min vs previous time point
  pH change (in brackets), S.mutans biofilms: -0.01
S.mutans biofilms; Nisin 0.004%, 6 min
  pH of mechanically disrupted S.mutans biofilms: 6.05±0.006
S.mutans biofilms; Nisin 0.004%, 6 min vs previous time point
  pH change (in brackets), S.mutans biofilms: +0.01
S.mutans biofilms; Nisin 0.004%, 7 min
  pH of mechanically disrupted S.mutans biofilms: 6.05±0.006
S.mutans biofilms; Nisin 0.004%, 7 min vs previous time point
  pH change (in brackets), S.mutans biofilms: 0
S.mutans biofilms; Nisin 0.004%, 8 min
  pH of mechanically disrupted S.mutans biofilms: 6.05±0
S.mutans biofilms; Nisin 0.004%, 8 min vs previous time point
  pH change (in brackets), S.mutans biofilms: 0
S.mutans biofilms; Nisin 0.004%, 9 min
  pH of mechanically disrupted S.mutans biofilms: 6.05±0
S.mutans biofilms; Nisin 0.004%, 9 min vs previous time point
  pH change (in brackets), S.mutans biofilms: 0
S.mutans biofilms; Nisin 0.004%, 10 min
  pH of mechanically disrupted S.mutans biofilms: 6.06±0.006
S.mutans biofilms; Nisin 0.004%, 10 min vs previous time point
  pH change (in brackets), S.mutans biofilms: +0.01
S.mutans biofilms; Nisin 0.004%, 15 min
  pH of mechanically disrupted S.mutans biofilms: 6.05±0.006
S.mutans biofilms; Nisin 0.004%, 15 min vs previous time point
  pH change (in brackets), S.mutans biofilms: -0.01
S.mutans biofilms; Nisin 0.004%, 20 min
  pH of mechanically disrupted S.mutans biofilms: 6.04±0.006
S.mutans biofilms; Nisin 0.004%, 20 min vs previous time point
  pH change (in brackets), S.mutans biofilms: -0.01
S.mutans biofilms; Nisin 0.004%, 30 min
  pH of mechanically disrupted S.mutans biofilms: 6.0±0
S.mutans biofilms; Nisin 0.004%, 30 min vs previous time point
  pH change (in brackets), S.mutans biofilms: -0.04
S.mutans biofilms; Nisin 0.004%
  Value of pH decrease within 30 min. of measurement (%): -1.47%
S.mutans biofilms; Nisin 0.008%
  Value of pH decrease within 30 min. of measurement (%): -3.15%
S.mutans biofilms; Nisin 0,008%, 0 min
  pH of mechanically disrupted S.mutans biofilms: 6.33±0
S.mutans biofilms; Nisin 0,008%, 1 min
  pH of mechanically disrupted S.mutans biofilms: 6.32±0.006
S.mutans biofilms; Nisin 0,008%, 1 min vs previous time point
  pH change (in brackets), S.mutans biofilms: -0.01
S.mutans biofilms; Nisin 0,008%, 2 min
  pH of mechanically disrupted S.mutans biofilms: 6.31±0.006
S.mutans biofilms; Nisin 0,008%, 2 min vs previous time point
  pH change (in brackets), S.mutans biofilms: -0.01
S.mutans biofilms; Nisin 0,008%, 3 min
  pH of mechanically disrupted S.mutans biofilms: 6.28±0.01
S.mutans biofilms; Nisin 0,008%, 3 min vs previous time point
  pH change (in brackets), S.mutans biofilms: -0.03
S.mutans biofilms; Nisin 0,008%, 4 min
  pH of mechanically disrupted S.mutans biofilms: 6.24±0.006
S.mutans biofilms; Nisin 0,008%, 4 min vs previous time point
  pH change (in brackets), S.mutans biofilms: -0.04
S.mutans biofilms; Nisin 0,008%, 5 min
  pH of mechanically disrupted S.mutans biofilms: 6.21±0.006
S.mutans biofilms; Nisin 0,008%, 5 min vs previous time point
  pH change (in brackets), S.mutans biofilms: -0.03
S.mutans biofilms; Nisin 0,008%, 6 min
  pH of mechanically disrupted S.mutans biofilms: 6.21±0
S.mutans biofilms; Nisin 0,008%, 6 min vs previous time point
  pH change (in brackets), S.mutans biofilms: -0.03
S.mutans biofilms; Nisin 0,008%, 7 min
  pH of mechanically disrupted S.mutans biofilms: 6.23±0
S.mutans biofilms; Nisin 0,008%, 7 min vs previous time point
  pH change (in brackets), S.mutans biofilms: +0.02
S.mutans biofilms; Nisin 0,008%, 8 min
  pH of mechanically disrupted S.mutans biofilms: 6.23±0
S.mutans biofilms; Nisin 0,008%, 8 min vs previous time point
  pH change (in brackets), S.mutans biofilms: 0
S.mutans biofilms; Nisin 0,008%, 9 min
  pH of mechanically disrupted S.mutans biofilms: 6.21±0
S.mutans biofilms; Nisin 0,008%, 9 min vs previous time point
  pH change (in brackets), S.mutans biofilms: -0.02
S.mutans biofilms; Nisin 0,008%, 10 min
  pH of mechanically disrupted S.mutans biofilms: 6.2±0.006
S.mutans biofilms; Nisin 0,008%, 10 min vs previous time point
  pH change (in brackets), S.mutans biofilms: -0.01
S.mutans biofilms; Nisin 0,008%, 15 min
  pH of mechanically disrupted S.mutans biofilms: 6.18±0
S.mutans biofilms; Nisin 0,008%, 15 min vs previous time point
  pH change (in brackets), S.mutans biofilms: -0.02
S.mutans biofilms; Nisin 0,008%, 20 min
  pH of mechanically disrupted S.mutans biofilms: 6.17±0.006
S.mutans biofilms; Nisin 0,008%, 20 min vs previous time point
  pH change (in brackets), S.mutans biofilms: -0.01
S.mutans biofilms; Nisin 0,008%, 30 min
  pH of mechanically disrupted S.mutans biofilms: 6.13±0.006
S.mutans biofilms; Nisin 0,008%, 30 min vs previous time point
  pH change (in brackets), S.mutans biofilms: -0.04
S.mutans biofilms; nisin 0.004-0.008%
  effect on the pH of cariogenic biofilm affected by sucrose: stabilizing effect
